In general, IC50 refers to the concentration at which inhibition is half-maximal. Low values mean greater potency, high ones weaker potency.

In this test the test system is SGC-7901. Kind of test: In vitro anti-cancer activity against SGC-7901 cell. It counts as functional, cell-based. As to conditions: Homo sapiens.
Consider `CCCCCCCCCCOc1cc(OCCCCCCCCCC)c2c(=O)cc(-c3ccc(C(F)(F)F)cc3)oc2c1`, for which the IC50 came to 9.02 µM.
In turn, `O=c1cc(-c2ccc(C(F)(F)F)cc2)oc2cc(OCc3ccccc3)cc(OCc3ccccc3)c12` had an IC50 of 5 µM. Compared with the last compound, the IC50 is about 1.8-fold lower.
As to `CC(=O)Oc1c(C(F)(F)F)c(O)c2c(=O)cc(-c3ccccc3)oc2c1C(F)(F)F`, the IC50 was 8.6 µM.
Turning to `CCOc1ccc2c(=O)cc(-c3ccc(C(F)(F)F)cc3)oc2c1`, the IC50 was 28.5 µM.
In turn, `CCCOc1cc(OCCC)c2c(=O)c(CCC)c(-c3ccc(C(F)(F)F)cc3)oc2c1` displayed an IC50 of 8.64 µM.
With `C=CCOc1ccc2c(=O)cc(-c3ccc(C(F)(F)F)cc3)oc2c1`, the IC50 was 5.26 µM. This IC50 lies about 1.6-fold lower than the previous one.
`CCCCCCCOc1cc(OCCCCCCC)c2c(=O)cc(-c3ccc(C(F)(F)F)cc3)oc2c1`: the IC50 worked out at 30.8 µM.
For the compound `CCOc1ccc2c(c1)O/C(=C\c1ccc(C(F)(F)F)cc1)C2=O`, the IC50 was 15.6 µM.
The value for `CCCCCCCCOc1cc(OCCCCCCCC)c2c(=O)cc(-c3ccc(C(F)(F)F)cc3)oc2c1` was 18.1 µM.
In turn, `O=c1cc(-c2ccc(C(F)(F)F)cc2)oc2cc(O)ccc12` registered a half-inhibitory concentration (IC50) of 17.8 µM.
The compound `COc1cc(O)c2c(=O)cc(-c3ccccc3)oc2c1C(F)(F)F` returned an IC50 of 5.9 µM. This IC50 lies about 3-fold lower than the previous one.
Under `COc1cc(OC)c2c(=O)cc(-c3ccc(C(F)(F)F)cc3)oc2c1` stands 4.37 µM; under `COc1ccc2c(c1)O/C(=C\c1ccc(C(F)(F)F)cc1)C2=O`, 21.2 µM; under `CCCCCCCCOc1ccc2c(=O)cc(-c3ccc(C(F)(F)F)cc3)oc2c1`, 4.16 µM.
`O=c1cc(-c2ccc(C(F)(F)F)cc2)oc2cc(O)cc(O)c12` gave an IC50 of 6.62 µM. Compared with the last compound, the IC50 is about 1.6-fold higher.
`COc1ccc2c(=O)cc(-c3ccc(C(F)(F)F)cc3)oc2c1`: the midpoint of inhibition, the IC50, lay at 8.28 µM.
For the compound `O=C1/C(=C/c2ccc(C(F)(F)F)cc2)Oc2cc(OCc3ccccc3)ccc21`, half-maximal inhibition (IC50) was put at 14.7 µM.
Turning to `C=CCOc1ccc2c(c1)O/C(=C\c1ccc(C(F)(F)F)cc1)C2=O`, it took 3.05 µM to reach half-maximal inhibition (IC50).
For `CCOc1cc(OCC)c2c(=O)c(CC)c(-c3ccc(C(F)(F)F)cc3)oc2c1`, the midpoint of inhibition, the IC50, lay at 72.5 µM.
Under `COc1cc(OC)c2c(=O)c(C)c(-c3ccc(C(F)(F)F)cc3)oc2c1` stands 10.1 µM; under `CCCOc1cc(OCCC)c2c(=O)cc(-c3ccc(C(F)(F)F)cc3)oc2c1`, 2.7 µM; under `CCCOc1ccc2c(=O)cc(-c3ccc(C(F)(F)F)cc3)oc2c1`, 5.61 µM.
As to `CCCCCCCOc1ccc2c(c1)O/C(=C\c1ccc(C(F)(F)F)cc1)C2=O`, the IC50 turned out to be 5.35 µM.
Compound `O=C1/C(=C/c2ccc(C(F)(F)F)cc2)Oc2cc(O)ccc21` yielded an IC50 of 4.31 µM.
The value for `CCOc1cc(OCC)c2c(=O)cc(-c3ccc(C(F)(F)F)cc3)oc2c1` was 44 µM.
